Assay: xn = mol fraction of the nth substance listed
Conditions: 101.3 kPa, Liquid; for viscosity: Capillary tube (Ostwald / Ubbelohde) method

OCCCCO [1,4-butanediol] + O
Conditions | mass density, 298.15 K [kg/m3] | mass density, 308.15 K [kg/m3] | mass density, 318.15 K [kg/m3] | speed of sound, 298.15 K [m/s] | speed of sound, 308.15 K [m/s] | speed of sound, 318.15 K [m/s] | viscosity, 298.15 K [mPa·s] | viscosity, 308.15 K [mPa·s] | viscosity, 318.15 K [mPa·s]
x2 = 0.055 | 1013.64 | 1007.37 | 1001.62 | 1609 | 1591 | 1574.6 | 68.26 | 42.31 | 27.43
x2 = 0.1534 | 1015.1 | 1008.7 | 1002.81 | 1623.6 | 1604.6 | 1586.7 | 59.73 | 37.48 | 24.34
x2 = 0.2472 | 1016.59 | 1010.06 | 1004.04 | 1637.5 | 1617.7 | 1598.8 | 51.48 | 32.83 | 21.39
x2 = 0.3542 | 1018.46 | 1011.78 | 1005.59 | 1658.6 | 1637.1 | 1615.4 | 42.26 | 27.6 | 18.04
x2 = 0.4531 | 1020.08 | 1013.29 | 1006.95 | 1678.2 | 1655.1 | 1632.8 | 33.95 | 22.83 | 15
x2 = 0.498 | 1020.71 | 1013.88 | 1007.49 | 1686 | 1662.5 | – | 30.26 | 20.69 | 13.63
x2 = 0.5578 | 1021.37 | 1014.52 | – | 1695.3 | 1671 | – | 25.51 | 17.9 | 11.84
x2 = 0.6513 | 1021.78 | 1014.99 | – | 1707.7 | 1684.1 | – | 18.65 | 13.72 | 9.148
x2 = 0.7496 | 1020.65 | 1014.15 | – | 1715.9 | 1693 | – | 12.57 | 9.702 | 6.533
x2 = 0.8475 | 1016.21 | 1010.43 | – | 1702.6 | 1685.5 | – | 7.83 | 6.132 | 4.179
x2 = 0.9081 | 1010.66 | 1005.69 | – | 1663.1 | 1655 | – | 5.31 | 4.059 | 2.8
x2 = 0.9152 | 1009.83 | 1004.98 | – | 1655.8 | 1648.7 | – | 5.014 | 3.816 | 2.639
x2 = 0.9253 | 1008.58 | 1003.91 | – | 1644.1 | 1639.7 | – | 4.588 | 3.469 | 2.408
x2 = 0.9355 | 1007.24 | 1002.76 | – | 1630.7 | 1628.5 | – | 4.148 | 3.115 | 2.173
x2 = 0.9543 | 1004.56 | 1000.47 | – | 1601.1 | 1604.2 | – | 3.3 | 2.45 | 1.732
x2 = 0.955 | 1004.46 | 1000.37 | – | 1599.8 | 1603 | – | 3.267 | 2.425 | 1.716
x2 = 0.9597 | 1003.74 | 999.76 | – | 1591.3 | 1595.9 | – | 3.045 | 2.255 | 1.604
x2 = 0.9699 | 1002.14 | 998.39 | – | 1571.1 | 1579.2 | – | 2.544 | 1.881 | 1.357
x2 = 0.9804 | 1000.42 | 996.91 | – | 1547.9 | 1560.2 | – | 2.001 | 1.487 | 1.098
x2 = 0.9901 | 998.77 | 995.5 | – | 1523.9 | 1540.2 | – | 1.468 | 1.112 | 0.853
x2 = 0.9924 | 998.37 | 995.16 | – | 1517.8 | 1535.5 | – | 1.337 | 1.022 | 0.794
x2 = 0.9955 | 997.83 | 994.7 | – | 1509.5 | 1528.5 | – | 1.158 | 0.899 | 0.714

Source: the NIST ThermoML archive (doi:10.1021/je0340755)
